From BindingDB's records for patent US12473289 (Amgen, 2025)

Target: Acyl-CoA (8-3)-desaturase (Homo sapiens, UniProt O60427)
Assay: Inhibitory Activity using DGLA-CoA and Arachidonyl-CoA Mass Spectrometric Assays
Procedure: Membrane preparations of D5D-overexpressing HEK293 6E cells were prepared in which the total protein concentration was 5.6 mg/mL.

Chain of Acyl-CoA (8-3)-desaturase (O60427 whole entry): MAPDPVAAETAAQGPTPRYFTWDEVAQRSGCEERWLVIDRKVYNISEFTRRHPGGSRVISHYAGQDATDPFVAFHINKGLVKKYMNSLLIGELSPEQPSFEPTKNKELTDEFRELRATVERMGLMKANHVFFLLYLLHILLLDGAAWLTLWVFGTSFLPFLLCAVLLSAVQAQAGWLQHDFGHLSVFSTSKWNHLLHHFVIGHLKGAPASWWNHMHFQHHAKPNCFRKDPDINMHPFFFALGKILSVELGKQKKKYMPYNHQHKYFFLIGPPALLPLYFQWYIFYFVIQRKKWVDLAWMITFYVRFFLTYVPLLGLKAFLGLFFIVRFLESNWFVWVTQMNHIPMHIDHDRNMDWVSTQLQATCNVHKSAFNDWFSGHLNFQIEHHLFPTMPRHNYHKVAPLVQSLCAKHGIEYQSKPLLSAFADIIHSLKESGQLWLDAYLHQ

SMILES | IC50 [nM]
CSc1ccn2c(=O)c(-c3ccc(OCC(F)(F)F)cc3)c(C(F)(F)F)nc2c1 [US12473289, Example 1-35] | 10.4
Nc1ccn2c(=O)c(-c3ccc(OCC(F)(F)F)cc3)c(C(F)(F)F)nc2c1 [US12473289, Example 6-2] | 6.8
COC(=O)c1ccn2c(=O)c(-c3ccc(OCC(F)(F)F)cc3)c(C(F)(F)F)nc2c1 [US12473289, Example 1-36] | 199
COc1ccn2c(=O)c(-c3ccc(OC(F)(F)F)cc3F)c(C(F)(F)F)nc2c1 [US12473289, Example 1-9] | 5.9
O=c1c(-c2cnn(CCC(F)(F)F)c2)c(C(F)(F)F)nc2cc(OCF)ccn12 [US12473289, Example 17-3] | 29.6
COc1ccn2c(=O)c(-c3ccc(OCC(F)(F)F)nc3)c(C(F)(F)F)nc2n1 [US12473289, Example 1-70] | 262
COc1ccn2c(=O)c(-c3ccc(OCC4CC4)cc3)c(C(F)(F)F)nc2n1 [US12473289, Example 1-37] | 13.1
COc1ccn2c(=O)c(-c3cnn(-c4cccc(C(F)(F)F)c4)c3)c(C(F)(F)F)nc2c1 [US12473289, Example 1-19] | 345

The remaining lines, values ahead:

IC50 [nM] | SMILES
132 | O=c1ccn2c(=O)c(-c3cnn(CC(F)(F)C(F)(F)F)c3)c(C(F)(F)F)[nH]c2c1 [US12473289, Example 18]
87.6 | COC1=CC2NC(C(F)(F)F)=C(C3C=NC(OCC(F)(F)F)=NC3)C(=O)N2C=C1 (stereo unspecified) [US12473289, Example 37]
16.6 | O=C1C(C2C=NN(CC(F)(F)C(F)(F)F)C2)=C(C(F)(F)F)NC2C=C(OCCl)C=CN12 (stereo unspecified) [US12473289, Example 46]
141 | O=c1c(-c2ccc(OCC(F)(F)F)cc2)c(C(F)(F)F)nc2cc(C(F)F)ccn12 [US12473289, Example 32]
54.9 | COc1cc2nc(C(F)(F)F)c(-c3cnn(C[C@@H]4CC4(F)F)c3)c(=O)n2cc1F [US12473289, Example 72]
33.5 | O=C1C(C2C=NN(CC(F)(F)C(F)(F)F)C2)=C(C(F)(F)F)NC2C=C(OCF)C=NN12 (stereo unspecified) [US12473289, Example 47]
10.1 | O=C1C(C2C=NN(CC(F)(F)C(F)(F)F)C2)=C(C(F)(F)F)NC2C=C(OCF)C=CN12 (stereo unspecified) [US12473289, Example 45]
119 | O=C1C(C2C=NN(CC(F)(F)C(F)(F)F)C2)=C(C(F)(F)F)NC2C=C(OCCl)C=NN12 (stereo unspecified) [US12473289, Example 48]
